Assays:
Type in all cases: cell-based
[1] = system: Bacteroides caccae ATCC 43185 "BCA.26"; assay: Sugar-supported growth of commensal bacteria, BCA.26; details: 0.5% w/v sugar, 37° C., 18-24 hours, anaerobic; OD600 divided by OD600 with 0.5% w/v dextrose
Protocol: (§1) An in vitro assay was performed to assess the ability of various bacterial strains, including commensals of the gastrointestinal tract, to utilize different sugars as growth substrates. This assay was designed to assess the ability of selected natural monosaccharides, disaccharides and synthetic sugars to promote the growth of microbiota associated with a healthy state. Bacterial strains were handled at all steps in an anaerobic chamber (AS-580, Anaerobe Systems) featuring a palladium catalyst. The chamber was initially made anaerobic by purging with an anaerobic gas mixture of 5% hydrogen, 5% carbon dioxide and 90% nitrogen and subsequently maintained in an anaerobic state using this same anaerobic gas mixture. Anaerobicity of the chamber was confirmed daily using Oxoid anaerobic indicator strips that change color in the presence of oxygen. All culture media, assay plates, other reagents and plastic consumables were pre-reduced in the anaerobic chamber for 24-48 hours prior to contact with bacteria. Sugars were prepared at 5% w/v in water, filter-sterilized and added to Costar 3370 assay plates for a final concentration of 0.5% w/v in the assay, with each microbiome regulator assayed in two non-adjacent wells and dextrose and water supplied as positive and negative controls.
(§2) Bacterial isolates were obtained from the American Type Culture Collection (ATCC) and Leibniz Institute DSMZ-German Institute of Microorganisms and Cell Cultures (DSMZ). Cultures of the Bacteroidetes Bacteroides caccae ATCC 43185 “BCA.26”, Bacteroides thetaiotaomicron ATCC 29741 “BTH.8”, Bacteroides cellulosilyticus DSM 14838 “BCE.71”, Parabacteroides distasonis ATCC 8503 “PDI.6” and Prevotella copri DSM 18205 “PCO.72”; the Clostridiales Clostridium scindens ATCC 35704 “CSC.32”, Dorea formicigenerans ATCC 27755 “DFO.36” and Ruminococcus obeum ATCC 29714 “ROB.74”; and the Bifidobacteria Bifidobacterium longum ATCC 15707 “BLO.16” and Bifidobacterium longum DSM 20088 “BLO.83”, were grown anaerobically in Chopped Meat Glucose broth (CMG, Anaerobe Systems), a pre-reduced enriched medium including lean ground beef, enzymatic digest of casein, yeast extract, potassium phosphate, dextrose, cysteine, hemin and Vitamin K1, for 18-48 hours at 37° C. Inocula were prepared by determining the optical density of each culture at […] (OD600) in a Costar 3370 polystyrene 96-well flat-bottom assay plate using a Biotek Synergy 2 plate reader with Gen5 2.0 All-In-One Microplate Reader Software according to manufacturer's protocol, and diluting the cells to OD600 0.01 final in defined and semi-defined media that were prepared without sugars. D. formicigenerans, P. distasonis and B. longum isolates were tested in 900 mg/L sodium chloride, 26 mg/L calcium chloride dihydrate, 20 mg/L magnesium chloride hexahydrate, 10 mg/L manganese chloride tetrahydrate, 40 mg/L ammonium sulfate, 4 mg/L iron sulfate heptahydrate, 1 mg/L cobalt chloride hexahydrate, 300 mg/L potassium phosphate dibasic, 1.5 g/L sodium phosphate dibasic, 5 g/L sodium bicarbonate, 0.125 mg/L biotin, 1 mg/L pyridoxine, […], 75 mg/L histidine, 75 mg/L glycine, 75 mg/L tryptophan, 150 mg/L arginine, 150 mg/L methionine, 150 mg/L threonine, 225 mg/L valine, 225 mg/L isoleucine, 300 mg/L leucine, 400 mg/L cysteine, and 450 mg/L proline (Theriot C M et al. Nat Commun. 2014; 5:3114), supplemented with 0-3.5% (v/v) CMG. B. thetaiotaomicron, B. caccae and B. cellulosyliticus were tested in 100 mM potassium phosphate buffer (pH 7.2), 15 mM sodium chloride, 8.5 mM ammonium sulfate, 4 mM L-cysteine, 1.9 μM hematin, 200 μM L-histidine, 100 μM magnesium chloride, 1.4 μM iron sulfate heptahydrate, 50 μM calcium chloride, 1 μg/mL vitamin K3 and 5 ng/mL vitamin B12 (Martens E C et al. Cell Host & Microbe 2008; 4, 447-457). […]

[2] = system: Bacteroides cellulosilyticus DSM 14838 "BCE.71"; assay: Sugar-supported growth of commensal bacteria, BCE.71; details: 0.5% w/v sugar, 37° C., 18-24 hours, anaerobic; OD600 divided by OD600 with 0.5% w/v dextrose
Protocol: as §1, §2

[3] = system: Bacteroides thetaiotaomicron ATCC 29741 "BTH.8"; assay: Sugar-supported growth of commensal bacteria, BTH.8; details: 0.5% w/v sugar, 37° C., 18-24 hours, anaerobic; OD600 divided by OD600 with 0.5% w/v dextrose
Protocol: as §1, §2

[4] = system: Parabacteroides distasonis ATCC 8503 "PDI.6"; assay: Sugar-supported growth of commensal bacteria, PDI.6; details: 0.5% w/v sugar, 37° C., 18-24 hours, anaerobic; OD600 divided by OD600 with 0.5% w/v dextrose
Protocol: as §1, §2

[5] = system: Ruminococcus obeum ATCC 29714 "ROB.74"; assay: Sugar-supported growth of commensal bacteria, ROB.74; details: 0.5% w/v sugar, 37° C., 18-24 hours, anaerobic; OD600 divided by OD600 with 0.5% w/v dextrose
Protocol: as §1, §2

[6] = system: Prevotella copri DSM 18205 "PCO.72"; assay: Sugar-supported growth of commensal bacteria, PCO.72; details: 0.5% w/v sugar, 37° C., 18-24 hours, anaerobic; OD600 divided by OD600 with 0.5% w/v dextrose
Protocol: as §1, §2

[7] = system: Clostridium scindens ATCC 35704 "CSC.32"; assay: Sugar-supported growth of commensal bacteria, CSC.32; details: 0.5% w/v sugar, 37° C., 18-24 hours, anaerobic; OD600 divided by OD600 with 0.5% w/v dextrose
Protocol: as §1, §2

[8] = system: Dorea formicigenerans ATCC 27755 "DFO.36"; assay: Sugar-supported growth of commensal bacteria, DFO.36; details: 0.5% w/v sugar, 37° C., 18-24 hours, anaerobic; OD600 divided by OD600 with 0.5% w/v dextrose
Protocol: as §1, §2

[9] = system: Bifidobacterium longum ATCC 15707 "BLO.16"; assay: Sugar-supported growth of commensal bacteria, BLO.16; details: 0.5% w/v sugar, 37° C., 18-24 hours, anaerobic; OD600 divided by OD600 with 0.5% w/v dextrose
Protocol: as §1, §2

[10] = system: panel of 10 commensals; assay: Sugar-supported growth, whole panel of 10 commensals; details: 0.5% w/v sugar, summary in words
Protocol: as §1, §2

[11] = system: Bifidobacterium longum DSM 20088 "BLO.83"; assay: Sugar-supported growth of commensal bacteria, BLO.83; details: 0.5% w/v sugar, 37° C., 18-24 hours, anaerobic; OD600 divided by OD600 with 0.5% w/v dextrose
Protocol: as §1
Bacterial isolates were obtained from the American Type Culture Collection (ATCC) and Leibniz Institute DSMZ-German Institute of Microorganisms and Cell Cultures (DSMZ). Cultures of the Bacteroidetes Bacteroides caccae ATCC 43185 “BCA.26”, Bacteroides thetaiotaomicron ATCC 29741 “BTH.8”, Bacteroides cellulosilyticus DSM 14838 “BCE.71”, Parabacteroides distasonis ATCC 8503 “PDI.6” and Prevotella copri DSM 18205 “PCO.72”; the Clostridiales Clostridium scindens ATCC 35704 “CSC.32”, Dorea formicigenerans ATCC 27755 “DFO.36” and Ruminococcus obeum ATCC 29714 “ROB.74”; and the Bifidobacteria Bifidobacterium longum ATCC 15707 “BLO.16” and Bifidobacterium longum DSM 20088 “BLO.83”, were grown anaerobically in Chopped Meat Glucose broth (CMG, Anaerobe Systems), a pre-reduced enriched medium including lean ground beef, enzymatic digest of casein, yeast extract, potassium phosphate, dextrose, cysteine, hemin and Vitamin K1, for 18-48 hours at 37° C. Inocula were prepared by determining the optical density of each culture at […] (OD600) in a Costar 3370 polystyrene 96-well flat-bottom assay plate using a Biotek Synergy 2 plate reader with Gen5 2.0 All-In-One Microplate Reader Software according to manufacturer's protocol, and diluting the cells to OD600 0.01 final in defined and semi-defined media that were prepared without sugars. […]

SMILES	Average Normalized Growth (NGV), BCA.26 [1]	Average Normalized Growth (NGV), BCE.71 [2]	Average Normalized Growth (NGV), BTH.8 [3]	Average Normalized Growth (NGV), PDI.6 [4]	Average Normalized Growth (NGV), ROB.74 [5]	Average Normalized Growth (NGV), PCO.72 [6]	Average Normalized Growth (NGV), CSC.32 [7]	Average Normalized Growth (NGV), DFO.36 [8]	Average Normalized Growth (NGV), BLO.16 [9]	taxa or strains of the commensal panel whose growth was supported [10]	Average Normalized Growth (NGV), BLO.83 [11]
O=C[C@H](O)[C@@H](O)[C@H](O)CO [D-xylose]	+++ (>1)	++ (0.6-1)	+++ (>1)	+ (0.2-0.6)	− (<0.2)	++ (0.6-1)	− (<0.2)	− (<0.2)	++ (0.6-1)	supported some commensals from the taxa Bacteroidetes and Bifidobacteria	–
O=C[C@H](O)[C@H](O)[C@H](O)CO [ribose]	− (<0.2)	+ (0.2-0.6)	− (<0.2)	+++ (>1)	− (<0.2)	− (<0.2)	+++ (>1)	+++ (>1)	− (<0.2)	supported some commensals from the taxa Bacteroidetes and Firmicutes	–
O=C[C@@H](O)[C@@H](O)[C@H](O)[C@H](O)CO [D-mannose]	+++ (>1)	+++ (>1)	+++ (>1)	+++ (>1)	++ (0.6-1)	− (<0.2)	+ (0.2-0.6)	− (<0.2)	− (<0.2)	supported some commensals from the taxa Bacteroidetes and Firmicutes	–
OC[C@@H](O)[C@@H](O)[C@H](O)[C@@H](O)CO [D-sorbitol]	–	–	–	–	–	–	–	–	–	supported growth of CSC.32 alone among the panel of 10 commensals	–
O=C[C@@H](O)[C@H](O)[C@H](O)CO [D (−) arabinose]	++ (0.6-1)	+ (0.2-0.6)	++ (0.6-1)	− (<0.2)	++ (0.6-1)	− (<0.2)	++ (0.6-1)	− (<0.2)	− (<0.2)	supported some commensals from the taxa Bacteroidetes and Firmicutes	–
C[C@H](O)[C@@H](O)[C@@H](O)[C@H](O)C=O [L-fucose]	+++ (>1)	+ (0.2-0.6)	+ (0.2-0.6)	− (<0.2)	++ (0.6-1)	− (<0.2)	− (<0.2)	− (<0.2)	− (<0.2)	supported some commensals from the taxa Bacteroidetes and Firmicutes	–
OC[C@H]1O[C@H](O[C@]2(CCl)O[C@H](CCl)[C@@H](O)[C@@H]2O)[C@H](O)[C@@H](O)[C@H]1Cl [sucralose]	–	–	–	–	–	–	–	–	–	supported growth of PCO.72 alone among the panel of 10 commensals	–
OC[C@H]1O[C@@H](O[C@@H]2[C@@H](CO)OC(O)(CO)[C@H]2O)[C@H](O)[C@@H](O)[C@H]1O (mixture of isomers) [lactulose]	++ (0.6-1)	++ (0.6-1)	− (<0.2)	+ (0.2-0.6)	–	++ (0.6-1)	− (<0.2)	–	–	supported growth of some strains from the taxa Bacteroidetes and Bifidobacteria	–
O=C[C@H](O)[C@@H](O)[C@@H](O)CO [L-arabinose]	+++ (>1)	++ (0.6-1)	+++ (>1)	− (<0.2)	–	++ (0.6-1)	− (<0.2)	+++ (>1)	++ (0.6-1)	supported some commensals from the taxa Bacteroidetes, Firmicutes, including Lachnospiraceae, and Bifidobacteria	− (<0.2)
OC[C@@H](O)[C@@H](O)[C@H](O)[C@H](O)CO [D-mannitol]	− (<0.2)	− (<0.2)	− (<0.2)	− (<0.2)	–	− (<0.2)	+ (0.2-0.6)	–	− (<0.2)	supported growth of CSC.32 alone among the panel of 10 commensals	–
OC[C@H]1O[C@H](O[C@H]2[C@H](O)[C@@H](O)[C@H](O)O[C@@H]2CO)[C@H](O)[C@@H](O)[C@@H]1O [D (+) maltose]	+ (0.2-0.6)	++ (0.6-1)	+++ (>1)	++ (0.6-1)	–	+++ (>1)	− (<0.2)	+++ (>1)	+++ (>1)	supported some commensals from the taxa Bacteroidetes, Firmicutes, including Lachnospiraceae, and Bifidobacteria	–
OC[C@H]1O[C@@](CO)(O[C@H]2O[C@H](CO)[C@@H](O)[C@H](O)[C@H]2O)[C@@H](O)[C@@H]1O [sucrose]	–	–	–	–	–	–	–	–	–	supported some commensals from the taxa Bacteroidetes, Firmicutes, including Lachnospiraceae, and Bifidobacteria	–
